What was measured:
[1] = target: T1, ASIC2a (Rattus norvegicus, UniProt Q62962); experiment: two-electrode voltage clamp, X. laevis oocytes; format: cell-based; conditions: acid-induced (pH 4) plateau current, -70 mV
T1 construct: gene Asic2; full-length, expressed alone in X. laevis oocytes (3 ng cRNA, pGH19); homotrimer
T1 sequence (Q62962 1-512): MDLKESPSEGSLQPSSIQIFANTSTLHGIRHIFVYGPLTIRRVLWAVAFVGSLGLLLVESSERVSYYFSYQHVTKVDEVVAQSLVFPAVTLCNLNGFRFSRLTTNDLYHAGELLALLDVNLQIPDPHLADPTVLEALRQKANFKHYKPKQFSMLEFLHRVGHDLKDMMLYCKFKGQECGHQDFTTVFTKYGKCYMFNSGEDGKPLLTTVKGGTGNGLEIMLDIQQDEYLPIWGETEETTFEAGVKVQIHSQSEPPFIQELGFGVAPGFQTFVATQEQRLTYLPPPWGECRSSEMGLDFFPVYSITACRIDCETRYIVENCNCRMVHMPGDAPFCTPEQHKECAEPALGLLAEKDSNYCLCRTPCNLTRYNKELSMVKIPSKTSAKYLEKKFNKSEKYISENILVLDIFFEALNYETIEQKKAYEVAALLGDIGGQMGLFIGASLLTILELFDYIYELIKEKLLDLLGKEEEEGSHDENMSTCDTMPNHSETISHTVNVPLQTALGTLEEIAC

[2] = target: T2, ASIC2a/t-ASIC2b (Rattus norvegicus, UniProt A0A0G3F2N6+Q62962); experiment: two-electrode voltage clamp, X. laevis oocytes; format: cell-based
T2 construct: gene Asic2; X. laevis oocytes injected with 3 ng Asic2a + 6 ng Asic2b-type cRNA; t-ASIC2b lacks first 71 N-terminal residues; heterotrimer, stoichiometry unknown (mix with 0, 1 or 2 t-ASIC2b)
T2 sequence (A0A0G3F2N6 1-492): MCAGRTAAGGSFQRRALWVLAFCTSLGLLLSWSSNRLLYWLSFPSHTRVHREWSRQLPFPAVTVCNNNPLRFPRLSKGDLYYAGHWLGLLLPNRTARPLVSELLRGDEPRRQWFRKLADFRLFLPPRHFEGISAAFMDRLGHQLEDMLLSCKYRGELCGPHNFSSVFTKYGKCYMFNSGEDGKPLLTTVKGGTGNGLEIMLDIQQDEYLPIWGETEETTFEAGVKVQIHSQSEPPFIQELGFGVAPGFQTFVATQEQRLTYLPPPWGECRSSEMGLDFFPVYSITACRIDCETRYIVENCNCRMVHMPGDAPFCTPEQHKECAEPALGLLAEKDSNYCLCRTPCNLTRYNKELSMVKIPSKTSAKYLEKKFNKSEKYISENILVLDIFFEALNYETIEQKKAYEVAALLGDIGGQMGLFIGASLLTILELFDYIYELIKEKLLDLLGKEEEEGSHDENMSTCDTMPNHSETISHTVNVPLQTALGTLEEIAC
T2 sequence (Q62962 1-563 isoform Q62962-2): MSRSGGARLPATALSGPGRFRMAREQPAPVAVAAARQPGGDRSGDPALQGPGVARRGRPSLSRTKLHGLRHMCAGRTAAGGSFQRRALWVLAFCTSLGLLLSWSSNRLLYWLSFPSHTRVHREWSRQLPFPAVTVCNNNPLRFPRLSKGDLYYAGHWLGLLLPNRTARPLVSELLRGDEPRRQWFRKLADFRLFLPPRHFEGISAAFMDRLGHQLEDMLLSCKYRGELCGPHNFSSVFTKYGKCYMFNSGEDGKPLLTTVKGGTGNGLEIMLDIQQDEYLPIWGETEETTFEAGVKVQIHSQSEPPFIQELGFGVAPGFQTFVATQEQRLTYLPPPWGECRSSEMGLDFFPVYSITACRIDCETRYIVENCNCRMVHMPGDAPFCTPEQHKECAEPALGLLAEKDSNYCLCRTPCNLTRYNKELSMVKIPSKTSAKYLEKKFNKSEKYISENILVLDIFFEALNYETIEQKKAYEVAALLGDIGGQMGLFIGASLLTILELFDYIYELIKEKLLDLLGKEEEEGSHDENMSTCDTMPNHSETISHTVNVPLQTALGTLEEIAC

- IC50 [2]: ~50 µM
Compound: N=C(N)NC(=O)c1nc(Cl)c(N)nc1N [amiloride]
- % inhibition at 100 μM [1]: did not alter significantly the apparent low sensitivity of ASIC2a to amiloride

From paper PMC8410034, “A variant of ASIC2 mediates sodium retention in nephrotic syndrome” (JCI Insight, 2021)
